# From patent US9649314B2, “Pyrimido[4,5-b]quinoline-4,5(3H,10H)-diones” (NOVARTIS AG, priority 2012, dated 2017)
# Assays:
# [1] = system: human coagulation factor F9 containing the R29X (TAG) mutation; test: F9-R29X assay (full length F9 expression in isogenic HekR4 cells, imaging / F9 ELISA); type: cell-based; conditions: nonsense mutation suppression; for AC50: Homo sapiens
# Protocol: Activity of compounds of the present invention was examined using reporter constructs of full length human coagulation factor F9 containing the R29X (TAG) mutation known from hemophilia B patients (“F9-R29X assay”). Full length F9 cDNA was stably expressed in the above isogenic HekR4 cell background. Stop codon readthrough and full length F9 expression was determined with a miniaturized confocal high throughput imaging assay. In paraformaldehyde fixed and permeabilized cells (10 uM compound; 24 h incubation) F9 expression was identified with a commercial F9 antibody raised against the F9 C-terminus. […] F9 staining intensity (Alexa-Fluor 488) and Draq5 nuclear staining served as readout for data calculation. Percent activity was measured in comparison to high (active control) and low controls (DMSO solvent).
# α-L-iduronidase W402X = test: α-L-iduronidase-W402X assay (restored enzyme activity in cell lysates, 4-MU iduronide substrate); type: cell-based, human; conditions: 48 h treatment; for W402X Amax [%]: paromomycin 14 mM as reference control; for AC50: Homo sapiens
# Protocol: (§1) Activity of compounds of the present invention was examined using a functional readout for two clinically common stop codon (TAG) mutants (Q70X, W402X) of the lysosomal enzyme α-L-iduronidase. Lack of α-L-iduronidase expression in such stop codon patients leads to the lysosomal storage disorder Mucopolysaccharidosis I (MPSI) also called Hurler syndrome.
# (§2) Reporter constructs analogous to constructs above were expressed. In the assay, 2500 cells/well were treated for 48 h with compound, washed with PBS and lysed (0.4 M Sodiumformate, 0.1% NaN3, 0.9% NaCl, 0.2% Triton, pH 3.5). Restored α-L-iduronidase activity in cell lysates was measured with the fluoresecent 4-MU iduronide substrate (4 Methylumbelliferyl α-L-iduronide) after 45 min incubation. Again, paromomycin was used as reference control (14 mM).
# α-L-iduronidase Q70X = test: α-L-iduronidase-Q70X assay (restored enzyme activity in cell lysates, 4-MU iduronide substrate); type: cell-based, human; conditions: 48 h treatment; for Q70X Amax [%]: paromomycin 14 mM as reference control; for AC50: Homo sapiens
# Protocol: as §1, §2
# CFTR-Y122X = CFTR-Y122X assay (dual reporter isogenic Hek293 cell lines, Renilla luminescence readthrough); type: cell-based; conditions: Homo sapiens, HEK293, nonsense mutation suppression, 24 h incubation; for Emax: 100% = 14 mM paromomycin, tested up to 100 μM, read-out: Amax [%]
# Method in brief: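 Stable isogenic HEK dual-reporter line (eGFP–CFTR Y122X TGA PTC–myc–Renilla); 2000 cells/well, 24 h, then compound (10 μM; tested up to 100 μM) 24 h at 37 °C. Renilla luminescence normalised to neutral (0%) and 14 mM paromomycin (100%); wildtype construct counterscreen.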
Structure (SMILES),AC50 [1],Amax [%] [1],W402X Amax [%] (α-L-iduronidase W402X),AC50 (α-L-iduronidase W402X),Q70X Amax [%] (α-L-iduronidase Q70X),AC50 (α-L-iduronidase Q70X),Emax (CFTR-Y122X),AC50 (CFTR-Y122X)
"Cn1c2ccccc2c(=O)c2c(=O)n(C3CCCCC3)c(-c3ccco3)nc21 [Example 2.20, 3-cyclohexyl-2-(furan-2-yl)-10-methylpyrimido[4,5-b]quinoline-4,5(3H,10H)-dione]",5500 nM,158%,189%,900 nM,386%,1000 nM,201%,2300 nM
"Cn1c2ccccc2c(=O)c2c(=O)n(C3CCCCC3)c(-c3cccs3)nc21 [Example 2.17, 3-cyclohexyl-10-methyl-2-(thiophen-2-yl)pyrimido[4,5-b]quinoline-4,5(3H,10H)-dione]",5400 nM,157%,211%,2900 nM,265%,2100 nM,293%,5800 nM
"CCc1nc2c(c(=O)c3ccccc3n2C)c(=O)n1C1CCCCCC1 [Example 2.31, 3-cycloheptyl-2-ethyl-10-methylpyrimido[4,5-b]quinoline-4,5(3H,10H)-dione]",1900 nM,167%,300%,2900 nM,438%,1700 nM,67%,2500 nM
